# Laboratory results published in patent US12264185B2, “Stabilized BCL9 peptides for treatment of aberrant Wnt signaling” (WntRx Pharmaceuticals Inc., priority 2015, dated 2025).
# Several values for one entry are separate records, joined by “and”; a condition that tells them apart may be missing. Equal values may be shown once. Bridge positions count the residues as written; N and C are the ends. Square brackets hold non-standard residues; d marks the D form. Peptide text beside a SMILES is read from it. 2Nal = N[C@@H](Cc1ccc2ccccc2c1)C(=O)O; R5 = C=CCCC[C@@](C)(N)C(=O)O; S5 = C=CCCC[C@](C)(N)C(=O)O; βAla = NCCC(=O)O
# What was measured:
# [1] = system: B16F10 cells; experiment: B16F10 syngeneic model in C57BL/6 mice; format: in vivo; details: 12 days
# Protocol: C57BL/6 mice were inoculated with B16F10 cells. Female C57BL/6 mice aged 4-5 weeks were inoculated with B16F10 cells (2×10^5 cells in 0.05 ml per mouse) in the right flank. When the average tumor size of the mice reached 100 mm^3, the mice were divided into two groups (N=6). […] The treatment was intraperitoneally administered daily for 14 consecutive days.
# The treatment was intraperitoneally administered daily for 12 consecutive days. At the end of the treatment, the mice were sacrificed and tumor and blood samples were collected in anticoagulation tubes. Single cell separation was performed for each sample and then stained for FACS analysis. For cell surface staining, CD45-PerCP-Cy5, CD4-FITC, CD8-PE-Cy7, and CD25-PE were used. The tumor samples were then stained with either an anti-CD4 antibody or an anti-CD8 antibody to assess the presence of T cells in the tumor samples. The tumor samples were also stained with an anti-CD194 antibody and anti-CD196 antibody to assess the presence of T helper 17 cells in the tumor samples.
# The process of constructing WX-039 is described in Example 10. C57BL/6 mice were inoculated with B16F10 cells. […] The treatment was intraperitoneally administered daily for 12 consecutive days. At the end of the treatment, the mice were sacrificed and tumor and blood samples were collected in anticoagulation tubes. Tumor cells collected from the experiment were stained as described above and also with anti-CD205 antibody to assess whether WX compounds are capable of modulating dendritic cells.
# The ability of WX-039 to suppress tumor growth was assessed in the animal model described in Example 5.4. Briefly, C57BL/6 mice were inoculated with B16 cells. Female C57BL/6 mice aged 5 weeks were inoculated with B16F10 cells (2×10^5 cells in 0.05 ml per mouse) in the right flank. When the average tumor size of the mice reached 100 mm^3, the mice were divided into two groups (N=3). The first group was administered 60 mg/kg WX-039 while the second group was treated with a vehicle. The treatment was intraperitoneally administered daily for 12 consecutive days.
# [2] = Pharmacokinetics in female balb/c nude mice; format: in vivo; details: mouse, plasma, sc, 10 mg/kg subcutaneously
# Protocol: The pharmacokinetic profiles of the four additional polypeptides constructed in Example 10 were assessed following the procedures described in Example 5.1. WX-029 and WX-036 were administered 1 mg/kg intravenously to female balb/c nude mice. Blood samples were collected at 15 min, 1, 2, and 4 hours post administration. FIG. 39A and FIG. 39B summarize the plasma concentration and the pharmacokinetic profiles calculated for WX-029. FIG. 40A and FIG. 40B summarize the plasma concentration and the pharmacokinetic profiles calculated for WX-036.
# Similarly, WX-039 and WX-040 were also tested in female balb/c nude mice and assessed for their pharmacokinetic profiles. WX-039 was administered at 5 mg/kg intravenously, 5 mg/kg intraperitoneally, or 10 mg/kg subcutaneously. WX-040 was administered at 30 mg/kg intravenously or 30 mg/kg intraperitoneally. Blood samples were collected at 15 min, 1, 2, 4, 8, 24, 36, 48, and 72 hours post administration. FIG. 41A and FIG. 41B summarize the plasma concentration and the pharmacokinetic profiles calculated for WX-039. FIG. 42A and FIG. 42B summarize the plasma concentration and the pharmacokinetic profiles calculated for WX-040.
# [3] = system: CT26.WT cells; format: cell-based
# Protocol: One of the stabilized polypeptides generated in Example 10 was tested in a cell viability assay and compared against WX-035. WX-037 was selected for this comparison study. The cell viability assay was performed with CT26.WT cells (ATCC), following the procedures described in Example 2. Briefly, 4000 cells per well of each plate were seeded with 50 μL opti-MEM medium. Each polypeptide, WX-035 or WX-037, was diluted with 2% FBS containing opti-MEM medium using 1 μL of 200× concentrated polypeptide in 99 μL of the medium. Each stock solution was diluted for testing a wide range of concentrations. 50 μL of 2× concentrated polypeptide was added to each well of the plate. Three days after the polypeptide addition, the viability of cells was measured using CellTiterGlo assay, according to the manufacturer's protocol.
# [4] = Pharmacokinetics in female balb/c mice; format: in vivo; details: mouse, plasma, 30 mg/kg intravenous or intraperitoneal
# Protocol: The peptide solution was prepared at the fixed concentration of 0.5 mg/ml, and then suitable amounts were administered according to the dose. The same mixed solvent was used as a vehicle treatment. Blood samples (300 IA) were collected periodically from the retro-orbital vein at 0.25, 1, 2, 4, 6, 7, 12, and 24-hours post-dose (and 36 and 48 hours post-dose for intramuscular, subcutaneous, and intraperitoneal routes), followed by plasma separation for pending bioanalysis by LC-MS/MS. Standard PK parameters were calculated by non-compartmental analysis modules in WinNonlin Professional (v5.2, Pharsight, FDA-certified).
# Two different administration routes, intravenous or intraperitoneal, were compared using 30 mg/kg WX-035. […] As observed with male ICR mice, the half-life of WX-035 in this experiment was more than 9 hours.
# [5] = FIG. 34B
# Protocol: Table printed on a drawing sheet, FIG. 34B
# The patent's description of the figure: FIG. 34A and FIG. 34B show PK data for WX-035 administered to female balb/c mice (n=3). The mice were either intravenously or intraperitoneally administered with 30 mg/kg WX-035. Blood samples from each mouse were collected at 5 min, 15 min, 30 min, 1, 2, 4, 6, 8, 12, 24, 36, 48, and 72 hours post administration.
# First reader's note: Substance, dose (30 mg/kg IV and IP) and species (female Balb/c nude mice, N=3) are printed in the title of FIG. 34A on the same sheet; the label F is printed once, between the mIL/min/kg row and the % row, so the mIL/min/kg row may in fact belong to CL.
# [6] = system: Colo320DM cells; experiment: cells; details: Colo320DM cells
# Protocol: Colo320DM cells were selected for this assay as the proliferation of this particular cell line is dependent on BCL9 and β-catenin. ICG001, a known Wnt/β-catenin small molecule inhibitor, was used as a positive control. The cell viability at each treatment condition was analyzed using CellTiterGlo luminescent cell viability assay (Promega) according to the manufacturer's protocols.
# Following the procedure described in Example 2, the ability of WX-035 to inhibit cell growth was tested in a cell viability assay using Colo320DM cells.
# [7] = system: CT26 cells; experiment: CT26 syngeneic mouse model of colon cancer (Balb/c); format: in vivo, mice
# Protocol: The syngeneic mouse model of colon cancer using CT26 was then assessed. Male Balb/c mice were injected subcutaneously in the right flank with 5×10^4 CT26 cells each at approximately 5 weeks of age. […] Eight mice were included in each treatment group.
# The whole blood was taken from each mouse. Lymphocytes were purified from the blood samples by Ficoll, and the cells were stained with fluorescent anti-CD4 antibody. Data were measured by flow cytometry.
# As described above, the whole blood was taken from each mouse. Lymphocytes were purified from blood by Ficoll, and the cells were stained with fluorescent anti-CD8 antibody. Data were measured by flow cytometry.
# To further assess whether WX-024 is capable of modulating a tumor microenvironment, tumor and blood samples were collected in anticoagulation tubes at the end of the study. Single cells separation was performed and then cells were stained for FACS analysis. For cell surface staining, CD45-PerCP-Cy5, CD4-FITC, CD8-PE-Cy7, and CD25-PE were used. For intranuclear staining, cells were permeabilized overnight and then stained with Foxp3-APC for 60 minutes.
# The in vivo efficacy of WX-035 in treating a cancer was assessed in a syngeneic mouse model, following the procedures described in Example 5.3. Trametinib, a known MEK inhibitor, was used as a comparison. Briefly, balb/c mice were inoculated with CT26 and treatment started when tumor volume reached to about 100 mm^3. The mice were then divided into three groups and began administered with a vehicle, 40 mg/kg WX-035, or 1 mg/kg trametinib for 7 consecutive days.
# At the end of the study described in Example 9.2, a tumor sample from each mouse was collected to assess the effect of WX-035 in modulating T cell activation. The FACS analysis of each tumor sample was performed following the procedure described in Example 5. A shown in FIG. 36A, treatment with WX-035 reduced the total amount of CD45^+ cells. […] Likewise, Foxp3^+ CD25^+ T cells were reduced by WX-035 treatment (FIG. 36C). […] Furthermore, by increasing the ratio of cytotoxic T cells over regulatory T cells, WX-035 may induce a microenvironment that favors an immune reaction beneficial for tumor treatment. Of note, the samples collected from this experiment were also assessed for LGR5 expression.
# [8] = Pharmacokinetics in male ICR mice; details: mouse, plasma, 5 mg/kg
# Protocol: The tail vein was used for i.v. injections. […] Following injections, blood samples were obtained via the retro-orbital vein at 5 min, 1, 2, 4, 6, 8, 12, and 24 hours postdose. Plasma was obtained from the blood samples following mixing with sodium heparin and centrifugation.
# LC analysis was done using an Agilent 100 HPLC. MS analysis was done using an AB Sciex API 4000. Calibration standards were prepared by serial dilution.
# The maximum observed concentration (Cmax), terminal half-life (T1/2), total body clearance (CL), volume of distribution (Vz), area under the curve from the time of dosing to the last measurable concentration (AUC0-t), area under the curve from the time of dosing extrapolated to infinity (AUC0-inf), and bioavailability were calculated using noncompartmental analysis modules in the FDA-certified pharmacokinetic program WinNonlin Professional v5.2 (Pharsight).
# Briefly, the mice were administered 1 mg/kg or 5 mg/kg intravenously, or 5 mg/kg intraperitoneally. Blood samples were collected at 15 min, 1, 2, 3, 6, 8, 12, and 24 hours post administration.
# [9] = FIG. 33B
# Protocol: Table printed on a drawing sheet, FIG. 33B
# The patent's description of the figure: FIG. 33A and FIG. 33B show PK data for WX-035 administered to male ICR mice (an outbred strain). The mice were treated with either 1 mg/kg, or 5 mg/kg WX-035 intravenously or 5 mg/kg WX-035 intraperitoneally.
# First reader's note: Plasma PK parameters by route and dose; according to the description the animals are male ICR mice.
# [10] = Toxicity study of WX-035 in balb/c nude mice (H&E of major organs); format: in vivo; details: 30 mg/kg or 40 mg/kg i.v., 7 consecutive days
# Protocol: To assess the toxicity effect of WX-035, balb/c nude mice were administered with a vehicle, or 30 mg/kg, or 40 mg/kg WX-035, following the procedure described in Example 5.6. At the end of the study, the mice were sacrificed and major organs were harvested for H&E staining.
# [11] = 20 mg/kg WX-024 or 60 mg/kg WX-039 i.p. daily
structure (smiles),measurement,setting,value
"CC[C@H](C)[C@@H]1NC(=O)[C@@](C)(NC(=O)[C@H](CCCNC(=N)N)NC(=O)[C@H](CC(C)C)NC(=O)[C@]2(C)CCCC=CCCC[C@@](C)(NC(=O)[C@H](CCCNC(=N)N)NC(C)=O)C(=O)N[C@@H](CC(C)C)C(=O)N[C@@H](CCC(N)=O)C(=O)N2)CCCC=CCCC[C@@](C)(C(=O)N[C@@H](CC(C)C)C(=O)N[C@@H](Cc2ccc3ccccc3c2)C(=O)NCCC(=O)NCCC(N)=O)NC(=O)[C@H](CCCNC(=N)N)NC(=O)[C@H](CCC(N)=O)NC1=O [WX-039, RXaa1LQXaa2LRXaa3IQRXaa4L] (Ac-R[R5]LQ[S5]LR[S5]IQR[S5]L[2Nal][βAla][βAla]-NH2; staple 2-5, 8-12)",T helper 17 cells in tumor,[1]; [11],increased
same,dendritic cells (CD205+) in tumor,[1]; [11],capable of suppressing dendritic cells present in tumor
same,body weight change,[1]; 60 mg/kg i.p. daily,no substantial body weight change
same,tumor growth compared to vehicle,[1]; 60 mg/kg i.p. daily,reduced tumor growth
same,half-life,[2],~52 h
"CC[C@H](C)[C@@H]1NC(=O)[C@@](C)(NC(=O)[C@H](CCCNC(=N)N)NC(=O)[C@H](CC(C)C)NC(=O)[C@]2(C)CCCC=CCCC[C@@](C)(NC(C)=O)C(=O)N[C@@H](CC(C)C)C(=O)N[C@@H](CCC(N)=O)C(=O)N2)CCCC=CCCC[C@@](C)(C(=O)N[C@@H](CC(C)C)C(=O)N[C@@H](Cc2ccc3ccccc3c2)C(=O)NCCC(=O)NCCC(N)=O)NC(=O)[C@H](CCCNC(=N)N)NC(=O)[C@H](CCC(N)=O)NC1=O [WX-035, Xaa1LQXaa2LRXaa3IQRXaa4L] (Ac-[R5]LQ[S5]LR[S5]IQR[S5]L[2Nal][βAla][βAla]-NH2; staple 1-4, 7-11)",IC50,[3],1860 nM
same,half-life,[4],> 9 h
same,AUCINF |,[5],996.181 µg·h/mL and 997.708 µg·h/mL
same,AUClast |,[5],987.148 µg·h/mL and 996.029 µg·h/mL
same,CL |,[5],0.502 mL/min/kg
same,CMAX |,[5],102393 ng/mL
same,MRTINF | hr,[5],5.50 h
same,TERMINAL t1/2 | hr,[5],9.81 h and 7.03 h
same,TMAX | hr,[5],2.00 h
same,Vss |,[5],0.166 L/kg
same,effect on cell viability / cell growth,[6],improved IC50 value as compared to WX-024
same,Foxp3+ CD25+ T cells in tumor,"[7]; WX-035, 7 days",reduced
same,LGR5 expression in intestine samples,"[7]; WX-035, 7 days",reduced
same,total amount of CD4+ or CD8+ T cells in tumor,"[7]; WX-035, 7 days",reduced
same,total amount of CD45+ cells in tumor,"[7]; WX-035, 7 days",reduced
same,ratio between cytotoxic T cells (CD8+) and Foxp3+ regulatory T cells,"[7]; WX-035, 7 days, vs vehicle",increased
same,average tumor growth inhibition,"[7]; WX-035 i.p. for 7 consecutive days, day 7 / end of study",88.44%
same,half-life,[8],> 4 h
same,F | %,[9],72%
same,H&E staining of major organs,[10],did not cause any significant abnormality to major organs
